Experimental data: patent US5487990A (The General Hospital Corporation, priority 1992, dated 1996)

T1: Acetyl-CoA Hydrolase from S. cerevisiae (Saccharomyces cerevisiae, UniProt P32316)
T1 sequence (P32316 1-526): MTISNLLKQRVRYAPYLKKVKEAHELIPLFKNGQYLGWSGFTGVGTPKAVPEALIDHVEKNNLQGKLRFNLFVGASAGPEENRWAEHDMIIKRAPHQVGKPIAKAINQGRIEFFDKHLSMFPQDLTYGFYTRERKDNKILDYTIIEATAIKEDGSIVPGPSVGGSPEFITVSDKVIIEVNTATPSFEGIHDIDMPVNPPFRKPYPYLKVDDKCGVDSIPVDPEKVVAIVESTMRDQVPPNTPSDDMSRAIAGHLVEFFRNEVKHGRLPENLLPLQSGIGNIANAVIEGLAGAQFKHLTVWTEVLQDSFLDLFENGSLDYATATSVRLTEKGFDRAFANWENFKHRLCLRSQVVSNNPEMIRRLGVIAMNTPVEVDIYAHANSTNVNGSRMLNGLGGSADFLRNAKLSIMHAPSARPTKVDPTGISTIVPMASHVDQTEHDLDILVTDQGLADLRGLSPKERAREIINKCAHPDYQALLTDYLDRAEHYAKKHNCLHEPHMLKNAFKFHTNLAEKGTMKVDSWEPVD

B1: Acetyl-CoA Hydrolase from S. cerevisiae (Saccharomyces cerevisiae S288C) (protein)
chain: T1 sequence (P32316 1-526)

Key:
[1] = tested on: mitochondrial enzyme from hamster brown fat; settings: cited from earlier work
[2] = target: T1, Acetyl-CoA Hydrolase from S. cerevisiae; test: biochemical
Experimental: The assay mixture was incubated at 30° C. for 0.30 s, 1 min, 2 min, 3 min, 4 min, and 5 min. The reaction was stopped by adding 20 μl of 10 M acetic acid. The sample was evaporated by N2 stream at 30° C. to dryness in a fume hood, dissolved in 100 μl H2 O, and transferred to a scintillation vial containing 10 ml Ready-Solv EP scintillation cocktail. The sample tube was washed twice with 100 μl H2 O, each wash was transferred to the scintillation vial, and the radioactivity was determined by scintillation counting for 1 min.
nucleotides and divalent cations in 100 mM potassium phosphate, pH 7.4.
The enzyme activity was determined under standard radioactive assay
conditions using ACTH (1-24) (N = 3), as described in the Examples.
acylCoA in 100 mM phosphate buffer, pH 7.4.

[3] = target: T1, Acetyl-CoA Hydrolase from S. cerevisiae; test: Substrate specificity, colorimetric assay (DNTB, A412); type: biochemical; settings: read-out: Relative Activity (%)
[4] = substrate: CC(=O)SCCNC(=O)CCNC(=O)[C@H](O)C(C)(C)COP(=O)(O)OP(=O)(O)OC[C@H]1O[C@@H](n2cnc3c(N)ncnc32)[C@H](O)[C@@H]1OP(=O)(O)O; test: purified protein, by the assay type; settings: other: substrate acetyl-CoA; Lineweaver-Burk plot; pH 7.4; 30.0 °C
[5] = pH 7.4, read-out: Enzyme Activity (%)

Molecule	Km [1] [µM]	effect on yeast enzyme activity (in words) [2]	remaining activity at 100 µM [2, 5] [%]	remaining activity at 1000 µM [2, 5] [%]	remaining activity at 5000 µM [2, 5] [%]	Km ([2]; substrate acetyl-CoA, Lineweaver-Burk plot, read-out: apparent Km) [µM]	activity at 250 µM [3] [%]	Km [4] [µM]
CC(=O)SCCNC(=O)CCNC(=O)[C@H](O)C(C)(C)COP(=O)(O)OP(=O)(O)OC[C@H]1O[C@@H](n2cnc3c(N)ncnc32)[C@H](O)[C@@H]1OP(=O)(O)O [Acetyl-CoA, acetyl coenzyme A]	51	inhibited most effectively	66	28	5	62	100	–
B1	–	–	–	–	–	–	–	62
